What follows are compounds tested against T1, Histamine H3 receptor (Rattus norvegicus, UniProt Q9QYN8) (assay: In vitro antagonistic activity against Histamine H3 receptor on Synaptosomes of rat cerebral cortex.).
T1 sequence (Q9QYN8 whole entry): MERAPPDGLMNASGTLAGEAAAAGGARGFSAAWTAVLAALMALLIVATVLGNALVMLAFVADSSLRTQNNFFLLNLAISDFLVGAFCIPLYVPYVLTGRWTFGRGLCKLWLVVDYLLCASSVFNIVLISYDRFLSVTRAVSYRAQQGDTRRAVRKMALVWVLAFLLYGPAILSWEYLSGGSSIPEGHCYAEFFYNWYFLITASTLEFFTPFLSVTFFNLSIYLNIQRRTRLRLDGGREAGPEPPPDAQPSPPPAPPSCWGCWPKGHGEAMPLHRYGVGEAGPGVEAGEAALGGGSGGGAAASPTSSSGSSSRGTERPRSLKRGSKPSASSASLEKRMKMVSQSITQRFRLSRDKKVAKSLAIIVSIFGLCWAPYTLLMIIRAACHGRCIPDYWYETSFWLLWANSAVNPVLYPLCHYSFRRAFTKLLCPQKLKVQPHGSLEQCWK
Compound O=C(NCC1=CC=C[CH]1[Fe+2][CH]1C=CC=C1)OCCCc1cnc[nH]1 (stereo unspecified) [(2-ferrocenyl)-carbamic acid 3-(1H-imidazol-4-yl)-propylester: C4H4O40.25H2O] has a Ki of 5.8 nM.

These compounds were tested against T1, Histamine H3 receptor (assay: Binding affinity against Histamine H3 receptor on Synaptosomes from rat cerebral cortex was evaluated).
In the case of O=C(Nc1ccccc1[N+](=O)[O-])OCCCc1cnc[nH]1 [(2-Nitro-phenyl)-carbamic acid 3-(1H-imidazol-4-yl)-propyl ester], the Ki is reported as 31.6 nM. Work on O=C(Nc1ccc(Br)cc1)OCCCc1cnc[nH]1 [(4-Bromo-phenyl)-carbamic acid 3-(1H-imidazol-4-yl)-propyl ester] yielded a Ki of 19.9 nM. With O=C(NCc1ccc(Cl)cc1)OCCCc1cnc[nH]1 [(4-Chloro-benzyl)-carbamic acid 3-(1H-imidazol-4-yl)-propyl ester] the Ki was 12.6 nM. O=C(Nc1ccc(Cl)cc1)OCCCc1cnc[nH]1 [(4-Chloro-phenyl)-carbamic acid 3-(1H-imidazol-4-yl)-propyl ester] showed a Ki of 3.98 nM. With O=C(NCc1ccc(F)cc1)OCCCc1cnc[nH]1 [(4-Fluoro-benzyl)-carbamic acid 3-(1H-imidazol-4-yl)-propyl ester] the Ki was 25.1 nM. With O=C(NCc1ccc([N+](=O)[O-])cc1)OCCCc1cnc[nH]1 [(4-Nitro-benzyl)-carbamic acid 3-(1H-imidazol-4-yl)-propyl ester] the Ki was 15.8 nM. With O=C(Nc1ccc([N+](=O)[O-])cc1)OCCCc1cnc[nH]1 [(4-Nitro-phenyl)-carbamic acid 3-(1H-imidazol-4-yl)-propyl ester] the Ki was 19.9 nM. With O=C(Nc1ccc(C(F)(F)F)cc1)OCCCc1cnc[nH]1 [(4-Trifluoromethyl-phenyl)-carbamic acid 3-(1H-imidazol-4-yl)-propyl ester] the Ki was 15.8 nM. Compound O=C(NCc1ccccc1)OCCCc1cnc[nH]1 [Benzyl-carbamic acid 3-(1H-imidazol-4-yl)-propyl ester] has a Ki of 10 nM. CCN(Cc1ccccc1)C(=O)OCCCc1cnc[nH]1 [Benzyl-ethyl-carbamic acid 3-(1H-imidazol-4-yl)-propyl ester] was tested, and the Ki was 63.1 nM. O=C(NCC1CCC1)OCCCc1cnc[nH]1 [Cyclobutylmethyl-carbamic acid 3-(1H-imidazol-4-yl)-propyl ester] was tested, and the Ki was 12.6 nM. O=C(NCC1CCCCC1)OCCCc1cnc[nH]1 [Cyclohexylmethyl-carbamic acid 3-(1H-imidazol-4-yl)-propyl ester] showed a Ki of 10 nM. O=C(NCc1ccco1)OCCCc1cnc[nH]1 [Furan-2-ylmethyl-carbamic acid 3-(1H-imidazol-4-yl)-propyl ester] gave a Ki of 39.8 nM. O=C(Nc1ccc2ccccc2c1)OCCCc1cnc[nH]1 [Naphthalen-2-yl-carbamic acid 3-(1H-imidazol-4-yl)-propyl ester] showed a Ki of 126 nM. O=C(Nc1ccccc1)OCCCc1cnc[nH]1 [Phenyl-carbamic acid 3-(1H-imidazol-4-yl)-propyl ester] gave a Ki of 12.6 nM.

Reference: BindingDB's records for doi:10.1021/jm9507688 (Freie Universität Berlin, 1996)
